The values below are quoted from earlier work in article PMC3598812, “Evaluation of Anti-Hyperalgesic and Analgesic Effects of Two Benzodiazepines in Human Experimental Pain: A Randomized Placebo-Controlled Study” (PLoS ONE, 2013).

The test system of one data set is patients / volunteers. The following applies: placebo-controlled, double-blind trial, 114 outpatients with anxiety; mean doses 59 mg clobazam daily, 25 mg diazepam daily; ref Micromedex 2009; cited from earlier work.
The conditions of data set [1]: trial protocol, cited from earlier work.
A further data set has as its system healthy male subjects. The arrangement: method as in PMID 19038771. The conditions noted are these: capsaicin model, previous study; standard deviation 11.54; cited from earlier work.

As to `CN1C(=O)CN=C(c2ccccc2)c2cc(Cl)ccc21` [diazepam], in the data set with patients / volunteers, the “Dizziness, share of treated patients” value is given as 11% and the “Sedation, share of treated patients” value is given as 44%.

Regarding `CCOC(=O)c1ncn2c1CN(C)C(=O)c1cc(F)ccc1-2` [Flumazenil], the t1/2 result in data set [1] (iv) is “about 50 minutes”.

For the compound `O=C1CC(=O)N(c2ccccc2)c2cc(Cl)ccc2N1` [N-desmethylclobazam], the “Half life (t1/2)” value in data set [1] (drug background) is 50 h.

Turning to `CC(C)C[C@H](CN)CC(=O)O` [pregabalin], in the data set with healthy male subjects, the “Reduction in the area of hyperalgesia” value is given as 10.91 cm^2.
